{
  "source": "patent US20100298437A1",
  "about": "“USE OF CITRULLINE FOR TREATING UNDERNUTRITION CONDITIONS” (UNIVERSITE RENE DESCARTES-PARIS 5, priority 2006, published 2010)",
  "key": {"epitrochlearis [1]": {"test_system": "epitrochlearis", "assay": "Muscle protein synthesis (FSR) measured in vitro on isolated incubated muscle", "design": "species or system rat", "settings": "for increase of muscle protein synthesis (FSR): isolated muscle of undernourished adult rats, 2.5 mM citrulline, 2 hours incubation, versus control without citrulline", "experimental": "Treatment of animals: Male Sprague-Dawley rats (Charles River Laboratoires, L'Arbresles, France) aged 3 months (n=20) are placed in individual cages in a thermostated atmosphere (23°±1° C.), and subjected to a 12 hr light/dark cycle (dark between 8 a.m.-8 p.m.).\nAcclimatization of the rats is carried out during 2 weeks, during which the spontaneous food consumption is measured. The rats are fed a standard diet (A04, UAR, Villemoisson-sur-Orge, France) containing 17% proteins, 3% lipids, 59% carbohydrates and 21% water, fibers, vitamins and minerals. The average dietary intake during this period is 28 g/day for adult rats.\nAt the end of the acclimatization period, the rats are randomized in 2 groups: a control group made up of rats which are fed ad libitum (AL), and a group which is subjected to dietary restrictions during the same period: the rats are fed at a rate of 50% of spontaneous ingesta during 6 weeks with a 5% protein diet (Walrand S, Chambon-Savanovitch C, Felgines C, Chassagne J, Raul F, Normand B et al. Aging: a barrier to renutrition? Nutritional and immunologic evidence in rats. Am J Clin Nutr 2000; 72:816-824).\nIncubated isolated muscles. Muscles were incubated according to a method which had been used previously (Minet-Quinard R, Moinard C, Villie F, Vasson M P, Cynober L. Metabolic pathways implicated in the kinetic impairment of muscle glutamine homeostasis in adult and old glucocorticoid-treated rats. Am J Physiol Endocrinol Metab 2004; 287:E671-E676). Epitrochlearis is used because it is the most suitable for this type of study. […] At the end of the incubation, the muscles are collected and kept at −80° C. until the incorporation of ^13C-phenylalanine is measured by mass spectrometry in order to determine the Fractional Protein Synthesis (FSR) (Guillet C, Boirie Y, Walrand S. An integrative approach to in-vivo protein synthesis measurement: from whole tissue to specific proteins. Curr Opin Clin Nutr Metab Care 2004; 7:531-538). […]"}, "epitrochlearis [2]": {"test_system": "epitrochlearis", "assay": "Metabolism of citrulline by isolated incubated muscle (amino acids titrated in incubation medium)", "assay_type": "in vitro ADME, rat", "settings": "isolated muscle of healthy or undernourished adult rats, no metabolically linked amino acid released in incubation medium (results not shown)", "experimental": "Incubated isolated muscles. Muscles were incubated according to a method which had been used previously (Minet-Quinard R, Moinard C, Villie F, Vasson M P, Cynober L. Metabolic pathways implicated in the kinetic impairment of muscle glutamine homeostasis in adult and old glucocorticoid-treated rats. Am J Physiol Endocrinol Metab 2004; 287:E671-E676). Epitrochlearis is used because it is the most suitable for this type of study. After dissection, the epitrochlearis are incubated in 3 mL Krebs-Ringer buffer (119 mM NaCl; 4.8 mM KCl; 1.25 mM MgSO4; 25 mM NaHCO3; 1.24 mM NaHPO4; 1.0 mM CaCl2; 2 mM HEPES, pH 7.4), also containing glucose (8 mM), insulin (0.01 U/ml) and bovine serum albumin (BSA) (0.1% p/v). The muscles are pre-incubated during 30 minutes at 37° C. with 95% O2: 5% CO2. The muscles are then transferred into a tube containing 3 mL incubation medium (with ^13C-phenylalanine (1 mM) with or without 2.5 mM citrulline), and are incubated during 2 hours. At the end of the incubation, the muscles are collected and kept at −80° C. until the incorporation of ^13C-phenylalanine is measured by mass spectrometry in order to determine the Fractional Protein Synthesis (FSR) (Guillet C, Boirie Y, Walrand S. An integrative approach to in-vivo protein synthesis measurement: from whole tissue to specific proteins. Curr Opin Clin Nutr Metab Care 2004; 7:531-538). […]"}, "P70S6kinase": {"test_system": "P70S6kinase", "assay": "In vivo activation of the mTOR pathway: P70S6kinase by Western Blot in tibialis muscles of undernourished aged rats", "design": "species or system rat", "settings": "tibialis muscle", "experimental": "Treatment of animals: Forty male Sprague-Dawley rats aged 19 months (Charles River, L'Arbresle, France) were used. During an acclimatization period of 2 weeks the animals were fed ad libitum with a standard diet (UARA04, Usine d'Alimentation Rationnelle, Villemoisson-sur-Orge). Measurement of the spontaneous ingesta was carried out regularly. After this period 30 rats were subjected to a 50% dietary restriction during 12 weeks. Sacrificing 10 rats, used as a control group (group R), was carried out at the end of the dietary restriction period. The other 20 animals were again fed during one week before being sacrificed. Isonitrogen and isocaloric diets were either a standard diet enriched with citrulline 5 g/kg/d (n=10, group R+CIT), or a standard diet enriched with non essential amino acids (Ala, Gly, His, Asp, Ser in an equimolar ratio) (n=10, group R+AANE). Ten rats make up the control group (A.L); they are fed ad libitum all along the study before being sacrificed. Then the rats are sacrificed. The tibialis muscles are taken and quickly frozen in liquid nitrogen, then stored at −80° C. until analysis.\nExtraction of proteins and titration: The muscles are ground in liquid nitrogen with a mortar. The thus obtained powder is weighed, and then taken again in 10 volumes of a solubilization buffer containing a cocktail of phosphatase and protease inhibitors. […]"}, "[3]": {"settings": "enteral administration, rats with intestinal insufficiency; from FR 03 08349; cited from earlier work"}, "[4]": {"settings": "undernourished aged rats, former studies of the inventors; cited from earlier work"}},
  "data": [
    {"compound": "NC(=O)NCCC[C@H](N)C(=O)O", "note": "[L-citrulline]", "values": [
      {"measurement": "increase of muscle protein synthesis (FSR)", "setting": "epitrochlearis [1]", "result": "+27%"},
      {"measurement": "increase of muscle protein synthesis (FSR)", "setting": "epitrochlearis [1]; listed as citrulline", "result": "up to 30%"},
      {"measurement": "effect on protein synthesis", "setting": "epitrochlearis [1]; isolated muscles of healthy adult rats, citrulline added in vitro", "result": "no effect"},
      {"measurement": "metabolism of citrulline by the muscle", "setting": "epitrochlearis [2]; listed as Citrulline", "result": "not metabolized"},
      {"measurement": "metabolism of citrulline by the muscle", "setting": "epitrochlearis [2]; listed as citrulline", "result": "no capacity to metabolize"},
      {"measurement": "activity of P70S6 kinase as compared with group R", "setting": "P70S6kinase; 12 weeks 50% dietary restriction, then one week diet enriched with citrulline 5 g/kg/d", "result": "+417%"},
      {"measurement": "activity of P70S6 kinase compared with control group A.L. (in words)", "setting": "P70S6kinase; dietary restriction, then one week enriched diet", "result": "not being significantly different"},
      {"measurement": "body weight", "setting": "[3]", "result": "allowed these rats to take on weight again"},
      {"measurement": "protein synthesis level", "setting": "[4]", "result": "restore a protein synthesis level which is equivalent to the baseline protein synthesis level among healthy aged rats"}
    ]}
  ]
}
